Source: patent publication EP1272659B1, “EARLY DIAGNOSIS OF M[…] HUMAN BEINGS” (Università degli Studi di Roma " Tor Vergata", priority 2000, dated 2001)

Target: T1, FAAH (anandamide hydrolase; arachidonoylethanolamide amidohydrolase, EC 3.5.1.4) in human lymphocyte homogenates (Homo sapiens, UniProt O00519)
T1 construct: Lymphocytes were purified from peripheral blood by gradient centrifugation; from tissue; host or cells: human peripheral blood lymphocytes of pregnant women, homogenate
T1 sequence (O00519 1-579): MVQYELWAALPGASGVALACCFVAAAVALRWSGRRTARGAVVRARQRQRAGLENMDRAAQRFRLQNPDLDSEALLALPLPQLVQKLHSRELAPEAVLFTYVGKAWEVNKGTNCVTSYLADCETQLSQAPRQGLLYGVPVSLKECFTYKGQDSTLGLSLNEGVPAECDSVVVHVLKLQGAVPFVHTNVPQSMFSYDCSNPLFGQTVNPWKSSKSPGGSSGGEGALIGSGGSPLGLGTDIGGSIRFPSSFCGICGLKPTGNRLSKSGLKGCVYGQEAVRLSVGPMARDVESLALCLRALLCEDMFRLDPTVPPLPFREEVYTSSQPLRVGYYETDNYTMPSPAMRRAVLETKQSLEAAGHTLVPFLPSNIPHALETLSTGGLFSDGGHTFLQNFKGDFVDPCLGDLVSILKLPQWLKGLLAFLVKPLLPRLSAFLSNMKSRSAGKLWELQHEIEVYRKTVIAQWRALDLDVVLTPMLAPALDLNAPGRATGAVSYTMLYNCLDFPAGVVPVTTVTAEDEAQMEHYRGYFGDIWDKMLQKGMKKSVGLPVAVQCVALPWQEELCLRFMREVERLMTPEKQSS
Experiment: Kinetic analysis of FAAH activity in human lymphocyte homogenates: release of [1-14C]arachidonic acid from [1-14C]anandamide, reversed phase HPLC
Format: biochemical
Conditions: <8 weeks of pregnancy; for apparent maximum velocity (Vmax): lymphocyte homogenates
Protocol: The activity of FAAH (arachidonoylethanolamide amidohydrolase, EC 3.5.1.4) in human lymphocyte homogenates (20 µg/test) was determined by measuring the release of [1-^14C] arachidonic acid from [1-^14C] anandamide (NEN DuPont de Nemours, 52 mCi/mmol), using reversed phase high performance liquid cromatography as reported in Maccarrone et al. 1998.
The difference in FAAH activity between the group of 43 subjects with normal pregnancy (mean value = 169.60 ± 30.20 pmol.min^-1.mg protein^-1) and the group of 7 women who aborted (mean value 60.43 ± 29.34 pmol.min^-1.mg protein^-1) was statistically significant (P<0.0001 by the Mann-Whitney test). Embryonic death occurred approximately 10 days later, i.e. at 8 to 11 weeks for the subjects <7- to <10-week pregnant, respectively. […] On the other hand, the bell-shaped curve found for FAAH activity in normal subjects is frequently observed with biological indicators of the first trimester of pregnancy, such as the beta-subunit of human chorionic gonadotropin (Goldstein in Obstet Gynecol 1994).
FAAH (arachidonoylethanolamide amidohydrolase, EC 3.5.1.4) activity in human lymphocyte homogenates (20 µg/test) was determined by measuring the release of [1-^14C]arachidonic acid from [1-^14C] anandamide (NEN DuPont de Nemours, 52 mCi/mmol), using reverse phase high performance liquid cromatography as reported (Maccarrone et al. 1998). It has to be pointed out that the use of [^3H] anandamide, measuring the release of [^3H]arachidonic acid, yields the same results.

## CCCCC/C=C\C/C=C\C/C=C\C/C=C\CCCC(=O)NCCO [anandamide, arachidonoylethanolamide]
Subjects who miscarried
  apparent maximum velocity (Vmax): 75 ± 8 pmol.min^-1.mg protein^-1
Subjects with normal gestation
  apparent maximum velocity (Vmax): 187 ± 20 pmol.min^-1.mg protein^-1
read-out: apparent Michaelis-Menten constant (Km), lymphocyte homogenates (20 µg/test), same value for subjects with normal gestation and those who miscarried
  Km: 8 ± 1 µM
